# Reference: patent US20140303164A1, “THERAPEUTIC COMPOUNDS” (Gilead Sciences, Inc., priority 2013, published 2014)
# System: HIV-IIIb
# Assay: Test A: Antiviral Assay in MT4 Cells
# Format: cell-based, HIV-1
# Conditions: for inhibition at 0.2 µM / inhibition at 2 µM: Human immunodeficiency virus 1, IIIB, MT4, 120 h; for inhibition at 0.2 µM: read-out: % inhibition at 0.2 μM; for inhibition at 2 µM: read-out: % inhibition at 2 μM
# Description: Test A: Antiviral Assay in MT4 Cells
# MT-4 cells were next mixed with HIV-IIIb at an m.o.i of 0.003 for 1 hour, after which time 35 μL of virus/cell mixture (2000 cells) was immediately added to each well containing 40 μL of diluted compound. The plates were then incubated at 37° C. for 5 days. […] Cell lysis was carried out by incubating at room temperature for 10 min and then chemiluminescence was read.
Structure (SMILES),inhibition at 0.2 µM,inhibition at 2 µM,also measured
"O=C(Cn1nc(C(F)F)c2c1C(F)(F)CCC2(F)F)N[C@@H](Cc1cc(F)cc(F)c1)c1nc(-c2ccc3c(c2)C(=O)NC3)ccc1-c1ccc2c(c1)C(=O)NC2 [Compound 6, (S)—N-(1-(3,6-bis(3-oxoisoindolin-5-yl)pyridin-2-yl)-2-(3,5-difluorophenyl)ethyl)-2-(3-(difluoromethyl)-4,4,7,7-tetrafluoro-4,5,6,7-tetrahydro-1H-indazol-1-yl)acetamide]",5%,–,–
"Cn1nc(NS(C)(=O)=O)c2c(Cl)ccc(-c3ccc(C#CC(C)(O)C(F)F)nc3[C@H](Cc3cc(F)cc(F)c3)NC(=O)Cn3nc(C(F)F)c4c3C(F)(F)[C@@H]3C[C@H]43)c21 (stereo partly drawn) [Compound 169, N-((1S)-1-(3-(4-chloro-1-methyl-3-(methylsulfonamido)-1H-indazol-7-yl)-6-(4,4-difluoro-3-hydroxy-3-methylbut-1-yn-1-yl)pyridin-2-yl)-2-(3,5-difluorophenyl)ethyl)-2-((3b-S,4aR)-3-(difluoromethyl)-5,5-difluoro-3b,4,4a,5-tetrahydro-1H-cyclopropa[3,4]cyclopenta[1,2-c]pyrazol-1-yl)acetamide]",92%,92%,–
"CC(C)(O)C#Cc1ccc(-c2ccc3c(c2)C(=O)NC32CC2)c([C@H](Cc2cc(F)cc(F)c2)NC(=O)Cn2nc(C(F)(F)F)c3c2C(F)(F)[C@@H]2C[C@H]32)n1 [Compound 3D, 2-((3bS,4aR)-5,5-difluoro-3-(trifluoromethyl)-3b,4,4a,5-tetrahydro-1H-cyclopropa[3,4]cyclopenta[1,2-c]pyrazol-1-yl)-N—((S)-2-(3,5-difluorophenyl)-1-(6-(3-hydroxy-3-methylbut-1-yn-1-yl)-3-(3′-oxospiro[cyclopropane-1,1′-isoindolin]-5′-yl)pyridin-2-yl)ethyl)acetamide]",82%,–,–
"CC(C)(O)C#Cc1ccc(-c2ccc3c(c2)C(=O)NC3)c([C@H](Cc2cc(F)cc(F)c2)NC(=O)Cn2nc(C(F)F)c3c2C(F)(F)CCC3(F)F)n1 [Compound 9B, (S)-2-(3-(difluoromethyl)-4,4,7,7-tetrafluoro-4,5,6,7-tetrahydro-1H-indazol-1-yl)-N-(2-(3,5-difluorophenyl)-1-(6-(3-hydroxy-3-methylbut-1-yn-1-yl)-3-(3-oxoisoindolin-5-yl)pyridin-2-yl)ethyl)acetamide]",92%,–,–
"CC(C)(O)C#Cc1ccc(-c2cccc3c2CNC3=O)c([C@H](Cc2cc(F)cc(F)c2)NC(=O)Cn2nc(C(F)(F)F)c3c2C(F)(F)[C@@H]2C[C@H]32)n1 [Compound 15, 2-((3bS,4aR)-5,5-difluoro-3-(trifluoromethyl)-3b,4,4a,5-tetrahydro-1H-cyclopropa[3,4]cyclopenta[1,2-c]pyrazol-1-yl)-N—((S)-2-(3,5-difluorophenyl)-1-(6-(3-hydroxy-3-methylbut-1-yn-1-yl)-3-(1-oxoisoindolin-4-yl)pyridin-2-yl)ethyl)acetamide]",–,–,"% inhibition at 2 μM (percent inhibition of virus-induced cell killing at 2 μM drug concentration, from dose response curve, MT-4 cells, HIV-IIIb, 5 days, values above 100 normalized to 100): 94%"
"CC(C)(O)C#Cc1ccc(-c2cccc3c(=O)[nH]c(=O)[nH]c23)c([C@H](Cc2cc(F)cc(F)c2)NC(=O)Cn2nc(C(F)(F)F)c3c2C(F)(F)[C@@H]2C[C@H]32)n1 [Compound 17, 2-((3bS,4aR)-5,5-difluoro-3-(trifluoromethyl)-3b,4,4a,5-tetrahydro-1H-cyclopropa[3,4]cyclopenta[1,2-c]pyrazol-1-yl)-N—((S)-2-(3,5-difluorophenyl)-1-(3-(2,4-dioxo-1,2,3,4-tetrahydroquinazolin-8-yl)-6-(3-hydroxy-3-methylbut-1-ynyl)pyridin-2-yl)ethyl)acetamide]",95%,–,–
"Cn1nc(NS(C)(=O)=O)c2c(F)ccc(-c3ccc(C#CC(C)(C)O)nc3[C@H](Cc3cc(F)cc(F)c3)NC(=O)Cn3nc(C(F)F)c4c3C(F)(F)[C@@H]3C[C@H]43)c21 [Compound 75, 2-((3b-S,4aR)-3-(difluoromethyl)-5,5-difluoro-3b,4,4a,5-tetrahydro-1H-cyclopropa[3,4]cyclopenta[1,2-c]pyrazol-1-yl)-N—((S)-2-(3,5-difluorophenyl)-1-(3-(4-fluoro-1-methyl-3-(methylsulfonamido)-1H-indazol-7-yl)-6-(3-hydroxy-3-methylbut-1-yn-1-yl)pyridin-2-yl)ethyl)acetamide]",92%,93%,–
"NC(=O)c1cc(-c2ccc(-c3ccc(F)c(C(N)=O)c3)c([C@H](Cc3cc(F)cc(F)c3)NC(=O)Cn3nc(C(F)F)c4c3C(F)(F)CCC4(F)F)n2)ccc1F [Compound 5G, (S)-5,5′-(6-(1-(2-(3 (difluoromethyl)-4,4,7,7-tetrafluoro-4,5,6,7-tetrahydro-1H-indazol-1-yl)acetamido)-2-(3,5-difluorophenyl)ethyl)pyridine-2,5-diyl)bis(2-fluorobenz amide)]",–,–,"Response at 0.2 μM (percent inhibition of virus-induced cell killing at 0.2 μM, comparison with previously published compounds (WO 2013/006738)): 3%; Response at 2 μM (percent inhibition of virus-induced cell killing at 2 μM, comparison with previously published compounds (WO 2013/006738)): 58%"
"Cc1ccc(-c2ccc(C#CC(C)(C)O)nc2[C@H](Cc2cc(F)cc(F)c2)NC(=O)Cn2nc(C(F)F)c3c2C(F)(F)[C@@H]2C[C@H]32)c2c1c(NS(C)(=O)=O)nn2C [Compound 112D, 2-((3b-S,4aR)-3-(difluoromethyl)-5,5-difluoro-3b,4,4a,5-tetrahydro-1H-cyclopropa[3,4]cyclopenta[1,2-c]pyrazol-1-yl)-N—((S)-2-(3,5-difluorophenyl)-1-(3-(1,4-dimethyl-3-(methylsulfonamido)-1H-indazol-7-yl)-6-(3-hydroxy-3-methylbut-1-yn-1-yl)pyridin-2-yl)ethyl)acetamide]",97%,97%,–
"Cn1nc(NS(C)(=O)=O)c2c(Cl)ccc(-c3ccc(C#CC(C)(C)O)nc3[C@H](Cc3cc(F)cc(F)c3)NC(=O)Cn3nc(C(F)(F)F)c4c3C(F)(F)[C@@H]3C[C@H]43)c21 [Compound 78, N—((S)-1-(3-(4-chloro-1-methyl-3-(methylsulfonamido)-1H-indazol-7-yl)-6-(3-hydroxy-3-methylbut-1-yn-1-yl)pyridin-2-yl)-2-(3,5-difluorophenyl)ethyl)-2-((3b-S,4aR)-5,5-difluoro-3-(trifluoromethyl)-3b,4,4a,5-tetrahydro-1H-cyclopropa[3,4]cyclopenta[1,2-c]pyrazol-1-yl)acetamide]",98%,98%,–
"Cn1nc(NS(C)(=O)=O)c2c(Cl)ccc(-c3ccc(C#CC(C)(C)N)nc3[C@H](Cc3cc(F)cc(F)c3)NC(=O)Cn3nc(C(F)F)c4c3C(F)(F)[C@@H]3C[C@H]43)c21 [Compound 127, N—((S)-1-(6-(3-amino-3-methylbut-1-yn-1-yl)-3-(4-chloro-1-methyl-3-(methylsulfonamido)-1H-indazol-7-yl)pyridin-2-yl)-2-(3,5-difluorophenyl)ethyl)-2-((3bS,4aR)-3-(difluoromethyl)-5,5-difluoro-3b,4,4a,5-tetrahydro-1H-cyclopropa[3,4]cyclopenta[1,2-c]pyrazol-1-yl)acetamide]",92%,92%,–
"Cn1nc(N[S+](C)[O-])c2c(Cl)ccc(-c3ccc(C#CC(C)(C)O)nc3[C@H](Cc3cc(F)cc(F)c3)NC(=O)Cn3nc(C(F)F)c4c3C(F)(F)[C@@H]3C[C@H]43)c21 (stereo partly drawn) [Compound 180C, N-((1S)-1-(3-(4-chloro-1-methyl-3-(methylsulfinamido)-1H-indazol-7-yl)-6-(3-hydroxy-3-methylbut-1-yn-1-yl)pyridin-2-yl)-2-(3,5-difluorophenyl)ethyl)-2-((3b-S,4aR)-3-(difluoromethyl)-5,5-difluoro-3b,4,4a,5-tetrahydro-1H-cyclopropa[3,4]cyclopenta[1,2-c]pyrazol-1-yl)acetamide]",100%,100%,–
"CC(C)(O)C#Cc1cnc([C@H](Cc2cc(F)cc(F)c2)NC(=O)Cn2nc(C(F)F)c3c2C(F)(F)CCC3(F)F)c(-c2ccc3c(c2)C(=O)NC3)c1 [Compound 4H, (S)-2-(3-(difluoromethyl)-4,4,7,7-tetrafluoro-4,5,6,7-tetrahydro-1H-indazol-1-yl)-N-(2-(3,5-difluorophenyl)-1-(5-(3-hydroxy-3-methylbut-1-ynyl)-3-(3-oxoisoindolin-5-yl)pyridin-2-yl)ethyl)acetamide]",8%,–,–
"COc1cc(-c2ccc(-c3ccc4c(c3)C(=O)NC4)c([C@H](Cc3cc(F)cc(F)c3)NC(=O)Cn3nc(C(F)F)c4c3C(F)(F)CCC4(F)F)n2)ccn1 [Compound 8C, (S)-2-(3-(difluoromethyl)-4,4,7,7-tetrafluoro-4,5,6,7-tetrahydro-1H-indazol-1-yl)-N-(2-(3,5-difluorophenyl)-1-(2′-methoxy-5-(3-oxoisoindolin-5-yl)-[2,4′-bipyridin]-6-yl)ethyl)acetamide]",6%,–,–
"CC(C)(O)C#Cc1ccc(-c2cccc3c2CNC3=O)c([C@H](Cc2cc(F)cc(F)c2)NC(=O)Cn2nc(C(F)(F)F)c3c2C(F)(F)[C@@H]2C[C@H]32)n1 [Compound 14E, 2-((3bS,4aR)-5,5-difluoro-3-(trifluoromethyl)-3b,4,4a,5-tetrahydro-1H-cyclopropa[3,4]cyclopenta[1,2-c]pyrazol-1-yl)-N—((S)-2-(3,5-difluorophenyl)-1-(6-(3-hydroxy-3-methylbut-1-yn-1-yl)-3-(1-oxoisoindolin-4-yl)pyridin-2-yl)ethyl)acetamide]",87%,–,–
"O=C(Cn1nc(C(F)F)c2c1C(F)(F)CCC2(F)F)N[C@@H](Cc1cc(F)cc(F)c1)c1ncc(-c2cnc3[nH]ccc3c2)cc1-c1cnc2[nH]ccc2c1 [Compound 11, (S)—N-(1-(3,5-di(1H-pyrrolo[2,3-b]pyridin-5-yl)pyridin-2-yl)-2-(3,5-difluorophenyl)ethyl)-2-(3-(difluoromethyl)-4,4,7,7-tetrafluoro-4,5,6,7-tetrahydro-1H-indazol-1-yl)acetamide]",3%,–,–
